Data as given in patent US20240217990A1 (Gilead Sciences, Inc., priority 2021, published 2024).

Columns and labels:
[1] = molecular target: T1, TLR7 (Homo sapiens, UniProt Q9NYK1); assay: TLR7 human PBMC cell-based assay (antagonist, GS-986 stimulated cytokine release); conditions: human PBMCs; TLR7 agonist GS-986 400 nM, 6 hours; cytokines (IL-6 and IFNα) in supernatant; read-out: TLR-7 EC50
T1 construct: Human peripheral blood mononuclear cells (PBMCs) consist of lymphocytes, monocytes and dendritic cells that express TLR7, TLR8 and TLR9; endogenous in cells; host or cells: cryopreserved human PBMCs from healthy donors
T1 sequence (Q9NYK1 27-1049): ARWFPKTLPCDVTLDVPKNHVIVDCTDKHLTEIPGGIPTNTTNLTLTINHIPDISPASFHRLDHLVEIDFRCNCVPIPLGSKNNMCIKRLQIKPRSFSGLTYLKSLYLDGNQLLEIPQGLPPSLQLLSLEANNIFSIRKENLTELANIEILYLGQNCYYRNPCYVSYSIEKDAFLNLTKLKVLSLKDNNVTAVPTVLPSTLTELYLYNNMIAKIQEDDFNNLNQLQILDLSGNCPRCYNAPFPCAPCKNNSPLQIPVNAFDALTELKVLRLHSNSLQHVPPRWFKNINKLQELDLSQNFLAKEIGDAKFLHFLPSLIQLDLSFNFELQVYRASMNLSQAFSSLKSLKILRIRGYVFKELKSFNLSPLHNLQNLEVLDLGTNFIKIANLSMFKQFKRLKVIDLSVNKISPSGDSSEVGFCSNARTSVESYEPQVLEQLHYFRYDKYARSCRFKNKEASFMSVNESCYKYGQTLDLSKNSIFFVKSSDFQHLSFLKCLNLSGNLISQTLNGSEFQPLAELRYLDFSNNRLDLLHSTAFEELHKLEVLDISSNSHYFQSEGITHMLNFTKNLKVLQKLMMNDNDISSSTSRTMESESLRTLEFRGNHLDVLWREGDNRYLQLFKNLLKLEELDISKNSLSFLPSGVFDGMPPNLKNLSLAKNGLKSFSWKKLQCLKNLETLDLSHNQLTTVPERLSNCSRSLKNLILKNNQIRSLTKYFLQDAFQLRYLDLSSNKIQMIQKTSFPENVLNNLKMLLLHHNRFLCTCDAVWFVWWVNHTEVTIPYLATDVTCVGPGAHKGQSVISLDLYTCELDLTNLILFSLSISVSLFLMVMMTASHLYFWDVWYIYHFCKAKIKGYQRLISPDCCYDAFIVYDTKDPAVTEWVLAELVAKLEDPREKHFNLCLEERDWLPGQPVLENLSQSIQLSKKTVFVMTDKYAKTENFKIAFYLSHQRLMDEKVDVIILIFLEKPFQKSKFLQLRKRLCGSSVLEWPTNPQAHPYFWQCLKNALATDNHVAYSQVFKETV
Outline: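 EC50 derived by sigmoidal fitting of IL-6 and IFNα levels, quantified by electrochemiluminescence in supernatants of human PBMCs given 400 nM GS-986 for 6 h. Cells (100,000/well in RPMI-1640, 10% FBS) had received test antagonist 1 h beforehand, 10 doses in quadruplicate, at 37 °C.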

[2] = molecular target: T2, TLR8 (Homo sapiens, UniProt Q9NR97); assay: TLR8 human PBMC cell-based assay (antagonist, Compound A stimulated cytokine release); conditions: human PBMCs; TLR8 agonist Compound A 800 nM, 6 hours; cytokines (TNFa and IL 12p40) in supernatant; read-out: TLR-8 EC50
T2 construct: Human peripheral blood mononuclear cells (PBMCs) consist of lymphocytes, monocytes and dendritic cells that express TLR7, TLR8 and TLR9; endogenous in cells; host or cells: cryopreserved human PBMCs from healthy donors
T2 sequence (Q9NR97 27-1041): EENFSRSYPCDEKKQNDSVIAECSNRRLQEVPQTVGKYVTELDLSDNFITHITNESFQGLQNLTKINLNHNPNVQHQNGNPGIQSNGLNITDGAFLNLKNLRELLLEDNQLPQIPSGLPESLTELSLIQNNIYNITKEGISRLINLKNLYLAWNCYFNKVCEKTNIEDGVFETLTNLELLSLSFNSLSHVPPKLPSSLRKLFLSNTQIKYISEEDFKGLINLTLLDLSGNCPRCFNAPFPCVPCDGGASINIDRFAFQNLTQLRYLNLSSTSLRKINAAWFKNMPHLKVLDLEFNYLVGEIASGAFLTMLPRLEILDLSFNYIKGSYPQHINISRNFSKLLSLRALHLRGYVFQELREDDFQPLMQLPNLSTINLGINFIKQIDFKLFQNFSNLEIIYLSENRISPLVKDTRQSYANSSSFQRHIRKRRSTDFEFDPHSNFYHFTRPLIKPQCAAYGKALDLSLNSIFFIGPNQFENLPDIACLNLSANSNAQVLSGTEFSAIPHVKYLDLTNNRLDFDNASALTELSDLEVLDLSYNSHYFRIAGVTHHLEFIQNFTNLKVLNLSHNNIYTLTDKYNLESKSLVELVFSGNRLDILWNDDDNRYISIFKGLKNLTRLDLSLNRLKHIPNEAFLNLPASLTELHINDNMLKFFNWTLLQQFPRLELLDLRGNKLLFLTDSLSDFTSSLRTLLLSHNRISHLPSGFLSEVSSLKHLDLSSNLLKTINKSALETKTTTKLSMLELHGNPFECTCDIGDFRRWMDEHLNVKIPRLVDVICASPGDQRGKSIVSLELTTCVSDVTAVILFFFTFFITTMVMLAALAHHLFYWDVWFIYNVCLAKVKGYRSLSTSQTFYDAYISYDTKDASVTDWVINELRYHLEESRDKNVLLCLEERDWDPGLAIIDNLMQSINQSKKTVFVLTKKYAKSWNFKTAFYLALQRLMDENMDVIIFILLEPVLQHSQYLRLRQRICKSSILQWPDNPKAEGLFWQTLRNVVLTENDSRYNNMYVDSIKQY
Outline: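 Cryopreserved donor PBMCs (100,000/well, RPMI + 10% FBS) were preincubated 1 h with antagonist (10-point dose response, quadruplicate), then stimulated with Compound A (800 nM final) for 6 h at 37 °C. TNFa and IL-12p40 in supernatants were measured by electrochemiluminescence; sigmoidal fits gave EC50.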

| EC50 [1] [nM] | EC50 [2] [nM] | Compound |
| --- | --- | --- |
| 0.6 | 2.8 | Cc1cc(-c2[nH]c3cc(C(=O)N4CCC[C@H]5NCC[C@H]54)sc3c2C(C)C)cn2ncnc12 [Example 108] |
| 1.4 | 18.2 | Cc1cc(-c2[nH]c3cc(C(=O)N4CCCC5CNCC54)sc3c2C(C)C)cn2ncnc12 (stereo not shown) [Example 109] |
| 1.5 | 7.2 | Cc1cc(-c2[nH]c3cc(C(=O)N4CCCC(CN)C4)sc3c2C(C)C)cn2ncnc12 (stereo not shown) [Example 111] |
| 2.9 | 6.4 | Cc1cc(-c2[nH]c3cc(C(=O)N4CCCC(CN(C)C)C4)sc3c2C(C)C)cn2ncnc12 (stereo not shown) [Example 112] |
| 12.7 | 7.5 | Cc1cc(-c2[nH]c3cc(C(=O)N4CC(N)C4)sc3c2C(C)C)cn2ncnc12 [Example 114] |
| 13 | 19.4 | Cc1cc(-c2[nH]c3cc(C(=O)N4CCC5(CCNCC5)C4)sc3c2C(C)C)cn2ncnc12 [Example 120] |
| 1.2 | 9 | Cc1cc(-c2[nH]c3cc(C(=O)N4CCC5(CCNC5)CC4)sc3c2C(C)C)cn2ncnc12 [Example 121] |
| 0.9 | 2.6 | Cc1cc(-c2[nH]c3cc(C(=O)N4CCN[C@@H](CO)C4)sc3c2C(C)C)cn2ncnc12 [Example 122] |
| 1.2 | 0.3 | Cc1cc(-c2[nH]c3cc(C(=O)N4CCN[C@@H](C)C4)sc3c2C(C)C)cn2ncnc12 [Example 125] |
| 2.5 | 15.7 | Cc1cc(-c2[nH]c3cc(C(=O)N4CC5(CCNCC5)C4)sc3c2C(C)C)cn2ncnc12 [Example 126] |
| 1.1 | 0.8 | Cc1cc(-c2[nH]c3cc(C(=O)N4CCN[C@H](C)C4)sc3c2C(C)C)cn2ncnc12 [Example 128] |
| 40.7 | 28.6 | Cc1cc(-c2[nH]c3cc(C(=O)N4CCNC(C(F)F)C4)sc3c2C(C)C)cn2ncnc12 (stereo not shown) [Example 130] |
| 21 | 6.7 | Cc1cc(-c2[nH]c3cc(C(=O)N4C[C@H]5NCCO[C@@H]5C4)sc3c2C(C)C)cn2ncnc12 [Example 131] |
| 33.7 | 26.9 | Cc1cc(-c2[nH]c3cc(C(=O)N4C[C@@H]5NCCO[C@@H]5C4)sc3c2C(C)C)cn2ncnc12 [Example 132] |
| 5.4 | 1.1 | Cc1cc(-c2[nH]c3cc(C(=O)N4CC[C@@H](N(C)C)C4)sc3c2C(C)C)cn2ncnc12 [Example 144] |
| 19 | 27.2 | Cc1cc(-c2[nH]c3cc(C(=O)N4CC[C@@H](CN)C4)sc3c2C(C)C)cn2ncnc12 [Example 146] |
| 152 | 2.4 | Cc1cc(-c2[nH]c3cc(C(=O)N4CC(N(C)C)C4)sc3c2C(C)C)cn2ncnc12 [Example 147] |
| 4.8 | 11 | Cc1cc(-c2[nH]c3cc(C(=O)N4CCNC[C@H]4C)sc3c2C(C)C)cn2ncnc12 [Example 148] |
| 2.8 | 10.5 | Cc1cc(-c2[nH]c3cc(C(=O)N4CCNC[C@@H]4C)sc3c2C(C)C)cn2ncnc12 [Example 149] |

More lines, now with the values behind:

| Compound | EC50 [1] [nM] | EC50 [2] [nM] |
| --- | --- | --- |
| Cc1cc(-c2[nH]c3cc(C(=O)N4CCC[C@H]5NCCC[C@H]54)sc3c2C(C)C)cn2ncnc12 [Example 110] | 0.1 | 0.8 |
| Cc1cc(-c2[nH]c3cc(C(=O)N(C)CC4CCNCC4)sc3c2C(C)C)cn2ncnc12 [Example 113] | 3.7 | 54.5 |
| Cc1cc(-c2[nH]c3cc(C(=O)N(C)C4CNC4)sc3c2C(C)C)cn2ncnc12 [Example 115] | 3 | 38 |
| Cc1cc(-c2[nH]c3cc(C(=O)N4CCNC[C@H]4c4ccccc4)sc3c2C(C)C)cn2ncnc12 [Example 116] | 16.2 | 14 |
| Cc1cc(-c2[nH]c3cc(C(=O)N4CCNCC4c4ccc(C(F)(F)F)cc4)sc3c2C(C)C)cn2ncnc12 (stereo not shown) [Example 117] | 209 | 47.8 |
| Cc1cc(-c2[nH]c3cc(C(=O)N4CCn5c(nnc5C(F)(F)F)C4)sc3c2C(C)C)cn2ncnc12 [Example 118] | 18.9 | 47.8 |
| Cc1cc(-c2[nH]c3cc(C(=O)N4CCN[C@@H](c5ccccc5)C4)sc3c2C(C)C)cn2ncnc12 [Example 119] | 42.4 | 0.3 |
| Cc1cc(-c2[nH]c3cc(C(=O)N4C[C@@H](C)NC[C@@H]4C)sc3c2C(C)C)cn2ncnc12 [Example 123] | 1.3 | 0.5 |
| Cc1cc(-c2[nH]c3cc(C(=O)N4C[C@H](C)NC[C@H]4C)sc3c2C(C)C)cn2ncnc12 [Example 124] | 0.5 | 1.7 |
| Cc1cc(-c2[nH]c3cc(C(=O)N4C[C@@H](C)N[C@H](C)C4)sc3c2C(C)C)cn2ncnc12 [Example 127] | 1.5 | 0.5 |
| Cc1cc(-c2[nH]c3cc(C(=O)N4CCN[C@H](c5ccccc5)C4)sc3c2C(C)C)cn2ncnc12 [Example 129] | 18.1 | 2.2 |
| Cc1cc(-c2[nH]c3cc(C(=O)N(C)C4CCN(CC(F)F)CC4)sc3c2C(C)C)cn2ncnc12 [Example 134] | 88.7 | 94.1 |
| CCN(C(=O)c1cc2[nH]c(-c3cc(C)c4ncnn4c3)c(C(C)C)c2s1)C1CCNCC1 [Example 135] | 0.4 | 9.9 |
| Cc1cc(-c2[nH]c3cc(C(=O)N(C)CCN(C)C)sc3c2C(C)C)cn2ncnc12 [Example 136] | 0.7 | 29.8 |
| Cc1cc(-c2[nH]c3cc(C(=O)N(C)Cc4cccnc4)sc3c2C(C)C)cn2ncnc12 [Example 137] | 44.3 | 137 |
| Cc1cc(-c2[nH]c3cc(C(=O)N(C)C4CCN(C5COC5)CC4)sc3c2C(C)C)cn2ncnc12 [Example 139] | 15 | 10.8 |
| Cc1cc(-c2[nH]c3cc(C(=O)N(C)C4CCN(CCO)CC4)sc3c2C(C)C)cn2ncnc12 [Example 141] | 1.3 | 2.7 |
| Cc1cc(-c2[nH]c3cc(C(=O)N(C4CCNCC4)C4CC4)sc3c2C(C)C)cn2ncnc12 [Example 143] | 0.7 | 27 |
| Cc1cc(-c2[nH]c3cc(C(=O)N4CCC[C@H]4CN)sc3c2C(C)C)cn2ncnc12 [Example 145] | 3.8 | 46.3 |
